These results are taken from ChEMBL document CHEMBL1201862, “PubChem BioAssay data set” (2004).

Some test systems named below: M14; OVCAR-4; RPMI-8226; SK-MEL-5; 786-0; SK-MEL-2; HCT-116; NCI-H460; SW-620; UO-31; SNB-75; A498; COLO 205; HCT-15; A549; OVCAR-5; SR; U-251; SF-539.
Experiment in all cases: inhibition of tumour cell growth, NCI panel, 48 h

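Values below derive from 48-hour exposures of cells grown in 96-well plates, with endpoints linearly interpolated between the two concentrations bracketing the appropriate inhibition level. GI50 marks 50% less growth.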 The source made the active and inactive calls. Cut-off read from the data, not from the text of the source: active = GI50 up to about 1.1 µM and inactive = higher.

On to `CCc1cccc(C(C)C)c1NC(=O)C(=O)C(C(=O)C(=O)OC)c1nc2ccccc2nc1O` (centres undefined), for which the GI50 in the test with M14, in the test with OVCAR-4, in the test on RPMI-8226, with SK-MEL-5, with 786-0 and in the test with SK-MEL-2 was > 100 µM (inactive) throughout. In addition, the GI50 in the test on HCT-116, in the test with NCI-H460, in the test with SW-620, with UO-31, in the test with SNB-75 and in the test with A498 was > 100 µM (inactive) throughout. Also, the GI50 in the test on COLO 205 is > 100 µM (inactive); in the test with HCT-15 it was above 100 µM; in the test on A549, > 100 µM (inactive); in the test on OVCAR-5 it was > 100 µM (inactive); with SR it was > 100 µM (inactive); in the test with U-251, > 100 µM (inactive).
Consider `COC(=O)/C(=C/c1ccc(OC)cc1)C(C(=O)O)=C1CCCC1`, for which the GI50 in the test with M14, in the test with OVCAR-4, with RPMI-8226, with SK-MEL-5, with 786-0 and in the test with SK-MEL-2 was > 100 µM (inactive) throughout. Further, the GI50 in the test on HCT-116, in the test with NCI-H460, with SW-620, in the test with SF-539, in the test with UO-31 and in the test on SNB-75 was > 100 µM (inactive) throughout. Further, the GI50 in the test on A498 is > 100 µM (inactive); with COLO 205, > 100 µM (inactive); in the test on HCT-15, above 100 µM; in the test with A549 it was > 100 µM (inactive); in the test with OVCAR-5, > 100 µM (inactive); in the test with SR it was > 100 µM (inactive). For the same molecule, the GI50 in the test with U-251 was > 100 µM (inactive).
`Cc1cccc(C)c1NC(=O)/C(=N/NC(N)=S)C(C)C(=O)c1ccc(Cl)cc1` (centres undefined): the GI50 in the test with M14 is > 100 µM (inactive); with OVCAR-4, 78.5 µM (inactive); with RPMI-8226, > 100 µM (inactive); with SK-MEL-5, > 100 µM (inactive); in the test on 786-0 it was > 100 µM (inactive); in the test on SK-MEL-2, > 100 µM (inactive). Further, the GI50 in the test on HCT-116, in the test on NCI-H460, with SW-620, in the test with SF-539, in the test with UO-31 and in the test on SNB-75 was > 100 µM (inactive) throughout. Further, the GI50 in the test on A498 is > 100 µM (inactive); in the test with COLO 205 it was > 100 µM (inactive); in the test on HCT-15, above 100 µM; in the test with A549 it was > 100 µM (inactive); in the test with OVCAR-5, > 100 µM (inactive); in the test with SR, > 100 µM (inactive). The GI50 in the test on U-251 was > 100 µM (inactive).
Turning to `CCOC(=O)c1oc2ccc(OC)c3c2c1CCC3`, the GI50 in the test with M14 is > 100 µM (inactive); with OVCAR-4, 51.6 µM (inactive); with RPMI-8226, > 100 µM (inactive); in the test on SK-MEL-5, 84.7 µM (inactive); in the test with 786-0, > 100 µM (inactive); in the test with SK-MEL-2 it was > 100 µM (inactive). For the same molecule, the GI50 is > 100 µM (inactive) with NCI-H460; > 100 µM (inactive) with SW-620; > 100 µM (inactive) with SF-539; 32.1 µM (inactive) in the test with UO-31; > 100 µM (inactive) in the test with SNB-75; > 100 µM (inactive) in the test on A498. In addition, the GI50 with COLO 205 was > 100 µM (inactive); in the test on HCT-15, above 100 µM; in the test with A549, > 100 µM (inactive); in the test with OVCAR-5, 44.7 µM (inactive); with SR it was 37.9 µM (inactive); in the test with U-251, > 100 µM (inactive).
With `NC1=NN(c2ccccc2)C(=O)C1/C(=N\NC(=O)c1cc2ccccc2cc1O)C(=O)Nc1nc([N+](=O)[O-])cs1` (centres undefined), the GI50 in the test with M14 was 35.7 µM (inactive); in the test on OVCAR-4, 33.7 µM (inactive); with RPMI-8226 it was 9.59 µM (inactive); in the test with SK-MEL-5, 20.3 µM (inactive); in the test with 786-0, 31.5 µM (inactive); with SK-MEL-2, > 49.8 µM (inactive). Further, the GI50 was 32.1 µM (inactive) in the test with HCT-116; 18.1 µM (inactive) in the test with NCI-H460; 27.9 µM (inactive) in the test with SW-620; 23.9 µM (inactive) in the test with SF-539; 9.42 µM (inactive) with UO-31; 18.5 µM (inactive) with SNB-75. Also, the GI50 is 41.2 µM (inactive) in the test on A498; 23.7 µM (inactive) in the test on COLO 205; 24.3 µM with HCT-15; 32.7 µM (inactive) in the test with A549; 44.9 µM (inactive) with OVCAR-5; 6.78 µM (inactive) in the test on SR. For the same molecule, the GI50 with U-251 is 27.7 µM (inactive).
For the molecule `CC(C)N(C(=O)C12C3C4C5C3C1(C(=O)N(C(C)C)C(C)C)C5C42)C(C)C` (centres undefined), the GI50 in the test on M14 was > 100 µM (inactive); in the test with OVCAR-4, > 100 µM (inactive); in the test with RPMI-8226 it was > 44.7 µM (inactive); in the test with SK-MEL-5, > 100 µM (inactive); in the test on 786-0, > 100 µM (inactive); in the test with SK-MEL-2 it was > 100 µM (inactive). The GI50 is > 43.6 µM (inactive) in the test on HCT-116; > 56.8 µM (inactive) in the test on NCI-H460; > 52.4 µM (inactive) in the test with SW-620; > 100 µM (inactive) in the test with SF-539; > 100 µM (inactive) with UO-31; > 100 µM (inactive) in the test with SNB-75. In addition, the GI50 is > 100 µM (inactive) with A498; > 44.5 µM (inactive) in the test with COLO 205; above 71.8 µM with HCT-15; > 58.9 µM (inactive) in the test with A549; > 100 µM (inactive) in the test on OVCAR-5; 19.1 µM (inactive) with SR. Further, the GI50 with U-251 was > 100 µM (inactive).
Consider `N#C/C(=C\c1cccc(Cl)c1Cl)c1ccccc1`, for which the GI50 in the test on M14 is 74.5 µM (inactive); in the test on OVCAR-4 it was 61.5 µM (inactive); in the test on RPMI-8226, > 61.9 µM (inactive); in the test with SK-MEL-5, 65.3 µM (inactive); in the test on 786-0, 37.6 µM (inactive); with SK-MEL-2 it was 47.1 µM (inactive). For the same molecule, the GI50 was 33 µM (inactive) with HCT-116; 58.9 µM (inactive) in the test on NCI-H460; > 53 µM (inactive) with SW-620; 35.1 µM (inactive) in the test with SF-539; 48.1 µM (inactive) in the test with UO-31; 19.1 µM (inactive) in the test on SNB-75. For the same molecule, the GI50 is 34.6 µM (inactive) in the test on A498; > 100 µM (inactive) with COLO 205; above 57.4 µM in the test on HCT-15; 66.8 µM (inactive) in the test on A549; > 100 µM (inactive) with OVCAR-5; > 38.1 µM (inactive) in the test on SR. For the same molecule, the GI50 with U-251 was 36.2 µM (inactive).
For the molecule `CCOC(=O)C1(C/C=C(/C)Cl)CCCC1=O` (centres undefined), the GI50 was > 100 µM (inactive) in the test with M14; > 100 µM (inactive) with OVCAR-4; 26.9 µM (inactive) with RPMI-8226; > 100 µM (inactive) in the test with SK-MEL-5; > 100 µM (inactive) in the test with 786-0; > 100 µM (inactive) with SK-MEL-2. Besides, the GI50 in the test on HCT-116, with NCI-H460, in the test with SF-539, in the test on UO-31, in the test with SNB-75 and in the test with A498 was > 100 µM (inactive) in each case. The GI50 with COLO 205 is > 100 µM (inactive); with HCT-15 it was 26.7 µM; in the test with A549, > 100 µM (inactive); in the test on OVCAR-5, > 100 µM (inactive); in the test on SR, 20.7 µM (inactive); in the test on U-251, > 100 µM (inactive).
